In PubChem BioAssay AID256 (DTP/NCI, 2004):
Inconclusive results and toxic doses are left out. How the source made its calls: active means survival T/C of 150% or more; inactive means T/C below 125% in these data.

System: CD2F1 mice, L1210 leukemia ip, survival T/C
Experiment: NCI In Vivo Anticancer Drug Screen. Data for tumor model L1210 Leukemia (intraperitoneal) in CD2F1 (CDF1) mice
Conditions: higher = longer survival
Method in brief: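 Compound-dosed mice with transplantable tumor versus matched vehicle controls; endpoint ratio T/C reported.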

[1] = endpoint: mean survival time, dose: 100.0 mg/kg/injection, schedule: Q01DX001 (ip), vehicle: saline with Tween-80
[2] = endpoint: mean survival time, dose: 200.0 mg/kg/injection, schedule: Q01DX001 (ip), vehicle: saline with Tween-80
[3] = endpoint: mean survival time, dose: 50.0 mg/kg/injection, schedule: Q01DX009 (ip), vehicle: saline
[4] = endpoint: mean survival time, dose: 100.0 mg/kg/injection, schedule: Q01DX009 (ip), vehicle: saline
[5] = endpoint: mean survival time, dose: 25.0 mg/kg/injection, schedule: Q01DX009 (ip), vehicle: saline
[6] = endpoint: mean survival time, dose: 25.0 mg/kg/injection, schedule: Q01DX009 (ip), vehicle: saline with Tween-80
[7] = endpoint: mean survival time, dose: 50.0 mg/kg/injection, schedule: Q01DX009 (ip), vehicle: saline with Tween-80
[8] = endpoint: mean survival time, dose: 100.0 mg/kg/injection, schedule: Q04DX003 (ip), vehicle: saline with Tween-80
[9] = endpoint: mean survival time, dose: 12.5 mg/kg/injection, schedule: Q01DX009 (ip), vehicle: saline
[10] = endpoint: mean survival time, dose: 100.0 mg/kg/injection, schedule: Q01DX009 (ip), vehicle: saline with Tween-80
[11] = endpoint: mean survival time, dose: 100.0 mg/kg/injection, schedule: Q01DX001 (ip), vehicle: saline
[12] = endpoint: mean survival time, dose: 200.0 mg/kg/injection, schedule: Q01DX001 (ip), vehicle: saline
[13] = endpoint: mean survival time, dose: 400.0 mg/kg/injection, schedule: Q01DX001 (ip), vehicle: saline
[14] = endpoint: mean survival time, dose: 200.0 mg/kg/injection, schedule: Q01DX009 (ip), vehicle: saline with Tween-80

Measured: T/C

Nc1nc(N)c2cc(S(=O)(=O)c3ccccc3)ccc2n1
inactive: endpoint: median survival time, dose: 25.0 mg/kg/injection, schedule: Q01DX009 (ip), vehicle: saline with Tween-80 98 % of control | endpoint: median survival time, dose: 50.0 mg/kg/injection, schedule: Q01DX009 (ip), vehicle: saline with Tween-80 100 % of control | endpoint: median survival time, dose: 100.0 mg/kg/injection, schedule: Q01DX009 (ip), vehicle: saline with Tween-80 102 % of control | endpoint: median survival time, dose: 200.0 mg/kg/injection, schedule: Q01DX009 (ip), vehicle: saline with Tween-80 121 % of control

CCOC(=O)C[Se]CC(=O)OCC
inactive: [1] 100 % of control | [2] 103 % of control

COc1ccc(OCCC(=O)O)cc1
inactive: [3] 119 % of control | [4] 105 % of control | endpoint: mean survival time, dose: 200.0 mg/kg/injection, schedule: Q01DX009 (ip), vehicle: saline 105 % of control

CCN(CC)Cc1cccc(Nc2cc(C)nc(/N=C(\N)Nc3ccc(Cl)c(Cl)c3)n2)c1
inactive: endpoint: mean survival time, dose: 9.5 mg/kg/injection, schedule: Q01DX001 (ip), vehicle: other 102 % of control | endpoint: mean survival time, dose: 19.0 mg/kg/injection, schedule: Q01DX001 (ip), vehicle: other 96 % of control | endpoint: mean survival time, dose: 38.0 mg/kg/injection, schedule: Q01DX001 (ip), vehicle: other 95 % of control

CCC[As](=O)(O)CCC
inactive: [5] 103 % of control | [3] 108 % of control | [4] 98 % of control

COC(Cc1ccccc1)(c1ccccc1)c1ccccc1
inactive: endpoint: mean survival time, dose: 100.0 mg/kg/injection, schedule: Q04DX002 (ip), vehicle: saline with Tween-80 95 % of control | endpoint: mean survival time, dose: 200.0 mg/kg/injection, schedule: Q04DX002 (ip), vehicle: saline with Tween-80 102 % of control | endpoint: mean survival time, dose: 400.0 mg/kg/injection, schedule: Q04DX002 (ip), vehicle: saline with Tween-80 91 % of control

O=C(O)c1ccc([N+](=O)[O-])cc1P(=O)(O)O
inactive: endpoint: mean survival time, dose: 18.75 mg/kg/injection, schedule: Q01DX009 (ip), vehicle: saline 98 % of control | endpoint: mean survival time, dose: 37.5 mg/kg/injection, schedule: Q01DX009 (ip), vehicle: saline 98 % of control | endpoint: mean survival time, dose: 75.0 mg/kg/injection, schedule: Q01DX009 (ip), vehicle: saline 95 % of control

CCCCCCCCCCNC(C1=C(O)c2ccccc2C(=O)C1=O)c1ccccc1 (stereo not drawn)
inactive: endpoint: mean survival time, dose: 6.25 mg/kg/injection, schedule: Q01DX001 (ip), vehicle: saline with Tween-80 107 % of control | endpoint: mean survival time, dose: 12.5 mg/kg/injection, schedule: Q01DX001 (ip), vehicle: saline with Tween-80 100 % of control | endpoint: mean survival time, dose: 25.0 mg/kg/injection, schedule: Q01DX001 (ip), vehicle: saline with Tween-80 92 % of control

COc1ccc2c(Nc3ccc(NS(C)(=O)=O)cc3)c3ccccc3nc2c1
inactive: [6] 100 % of control | [7] 86 % of control | [8] 120 % of control | endpoint: mean survival time, dose: 150.0 mg/kg/injection, schedule: Q04DX003 (ip), vehicle: saline with Tween-80 94 % of control

[CH3][Sn]([CH3])([Br])[CH2]CCCBr
inactive: endpoint: mean survival time, dose: 0.39 mg/kg/injection, schedule: Q01DX009 (ip), vehicle: saline 90 % of control | endpoint: mean survival time, dose: 0.78 mg/kg/injection, schedule: Q01DX009 (ip), vehicle: saline 94 % of control | endpoint: mean survival time, dose: 1.56 mg/kg/injection, schedule: Q01DX009 (ip), vehicle: saline 92 % of control | endpoint: mean survival time, dose: 6.25 mg/kg/injection, schedule: Q01DX009 (ip), vehicle: saline 98 % of control | [9] 91 % of control

C=CCOCCC#N
inactive: [10] 95 % of control

CCN(CC)CCC(=O)c1ccccc1
inactive: endpoint: mean survival time, dose: 3.12 mg/kg/injection, schedule: Q01DX009 (ip), vehicle: saline with Tween-80 100 % of control | endpoint: mean survival time, dose: 3.12 mg/kg/injection, schedule: Q01DX009 (ip), vehicle: suspension in saline 96 % of control | endpoint: mean survival time, dose: 6.25 mg/kg/injection, schedule: Q01DX009 (ip), vehicle: saline with Tween-80 103 % of control | endpoint: mean survival time, dose: 6.25 mg/kg/injection, schedule: Q01DX009 (ip), vehicle: suspension in saline 95 % of control | endpoint: mean survival time, dose: 12.5 mg/kg/injection, schedule: Q01DX009 (ip), vehicle: saline with Tween-80 102 % of control | [9] 90 % of control | endpoint: mean survival time, dose: 12.5 mg/kg/injection, schedule: Q01DX009 (ip), vehicle: suspension in saline 96 % of control | [6] 103 % of control | [5] 94 % of control | endpoint: mean survival time, dose: 25.0 mg/kg/injection, schedule: Q01DX009 (ip), vehicle: suspension in saline 106 % of control | [7] 101 % of control | [3] 92 % of control | endpoint: mean survival time, dose: 50.0 mg/kg/injection, schedule: Q01DX009 (ip), vehicle: suspension in saline 106 % of control | [10] 93 % of control

Nc1c(Cl)cc(Cl)cc1C(=O)O
inactive: [11] 102 % of control | [12] 100 % of control | [13] 104 % of control

Cc1c(C)c2c(c(C)c1O)CCC(C)(CCCC(C)CCCC(C)CCCC(C)C)O2 (stereo not drawn)
inactive: [10] 101 % of control | [14] 95 % of control | endpoint: mean survival time, dose: 400.0 mg/kg/injection, schedule: Q01DX009 (ip), vehicle: Klucel (hydroxypropylcellulose) (HPC) 98 % of control | endpoint: mean survival time, dose: 400.0 mg/kg/injection, schedule: Q01DX009 (ip), vehicle: saline with Tween-80 101 % of control | endpoint: mean survival time, dose: 800.0 mg/kg/injection, schedule: Q01DX009 (ip), vehicle: Klucel (hydroxypropylcellulose) (HPC) 96 % of control | endpoint: mean survival time, dose: 1200.0 mg/kg/injection, schedule: Q01DX009 (ip), vehicle: Klucel (hydroxypropylcellulose) (HPC) 96 % of control | endpoint: mean survival time, dose: 1600.0 mg/kg/injection, schedule: Q01DX009 (ip), vehicle: Klucel (hydroxypropylcellulose) (HPC) 90 % of control

C/C(Cl)=C\CSc1ccccc1
inactive: [11] 100 % of control | [12] 100 % of control | [13] 101 % of control

COc1ccc(CNCCO)cc1
inactive: [7] 96 % of control | [10] 102 % of control | [14] 98 % of control

CCN(CC)C1=CC(=O)c2ccccc2C1=O
inactive: endpoint: mean survival time, dose: 25.0 mg/kg/injection, schedule: Q04DX003 (ip), vehicle: saline with Tween-80 102 % of control | endpoint: mean survival time, dose: 50.0 mg/kg/injection, schedule: Q04DX003 (ip), vehicle: saline with Tween-80 96 % of control | [8] 103 % of control

Nc1ncc(CCS)c(=O)[nH]1
inactive: [11] 97 % of control | [12] 98 % of control

c1ccc2c(c1)CC1Nc3ccccc3C21 (stereo not drawn)
inactive: [1] 97 % of control | [2] 97 % of control | endpoint: mean survival time, dose: 400.0 mg/kg/injection, schedule: Q01DX001 (ip), vehicle: saline with Tween-80 96 % of control

CCC(=O)C(C)N(C)C1CCCCC1 (stereo not drawn)
inactive: endpoint: mean survival time, dose: 100.0 mg/kg/injection, schedule: Q04DX003 (ip), vehicle: saline 100 % of control | endpoint: mean survival time, dose: 200.0 mg/kg/injection, schedule: Q04DX003 (ip), vehicle: saline 102 % of control | endpoint: mean survival time, dose: 400.0 mg/kg/injection, schedule: Q04DX003 (ip), vehicle: saline 96 % of control

O=C1C(=O)c2ccc(Br)cc2C(O)=C1/C=C/c1ccccc1
inactive: endpoint: mean survival time, dose: 50.0 mg/kg/injection, schedule: Q01DX001 (ip), vehicle: saline 104 % of control | [11] 101 % of control | [12] 103 % of control

Cc1ncnc2c1ncn2C1OC(CO)C(O)C1O (stereo not drawn)
inactive: endpoint: mean survival time, dose: 0.25 mg/kg/injection, schedule: Q01DX005 (ip), vehicle: saline 113 % of control | endpoint: mean survival time, dose: 0.5 mg/kg/injection, schedule: Q01DX005 (ip), vehicle: saline 112 % of control | endpoint: mean survival time, dose: 1.0 mg/kg/injection, schedule: Q01DX005 (ip), vehicle: saline 124 % of control | endpoint: mean survival time, dose: 4.0 mg/kg/injection, schedule: Q01DX005 (ip), vehicle: saline 113 % of control

CCCCCC(C)NCCO (stereo not drawn)
inactive: endpoint: mean survival time, dose: 75.0 mg/kg/injection, schedule: Q01DX001 (ip), vehicle: saline 98 % of control
